Results taken from paper PMC12735921, “Evaluation of Antiproliferative Activity and Molecular Modeling Studies of Some Novel Benzimidazolone-Bridged Hybrid Compounds” (Pharmaceuticals, 2025).

Legend:
HEK 293 cells = experiment: MTT cell viability assay, non-cancerous HEK 293; format: cell-based, human; conditions: Homo sapiens, HEK293, 48 h, mean ± SD, n = 3
Experimental: (§1) Cell viability assay was performed on the human lung cancer (A549) (ATCC CCL-185), human breast cancer (MCF-7) (ATCC-HTB-22), cervical cancer (HeLa) (ATCC-CCL-2), and human embryonic kidney 293 (HEK293) (ATCC-CRL-1573) cell lines, which were purchased from Deutsche Sammlung von Mikroorganismen und Zellkulturen (DSMZ, Braunschweig, Germany). The cells were maintained in Dulbecco’s modified Eagle’s medium (DMEM), supplemented with 10% fetal bovine serum (FBS), 2 mM L-glutamine, 100 U/mL penicillin, and 100 mg/L streptomycin (Biochrom AG, Berlin, Germany) at 37 °C in a humidified atmosphere of 5% CO2.
The cytotoxic effect was determined by the MTT (3-(4,5-dimethyl-2-thiazolyl)-2,5-diphenyl-2H-tetrazolium bromide) cell viability assay. Cells were seeded at an initial concentration of 1 × 10^5 cells/mL in 96-well microplates. Cells were then treated with different concentrations (0.5, 5, 10, 25, 50, 100 and 200 µM) of the novel synthesized compounds for 48 h. After the incubation period, the formed formazan crystals were dissolved in dimethyl sulfoxide (DMSO), and the optical density (OD) of the compounds was measured at 570 nm using a spectrophotometer (BMG Labtech, Ortenberg, Germany). Cytotoxicity was expressed as an increase in the mean percentage of cytotoxicity relative to the unexposed control ± standard deviation (SD). […] Control values were set at 0% cytotoxicity. IC50 was calculated by fitting the data to a sigmoidal curve using a four-parameter logistic model and was presented as an average of three independent measurements. […] Each sample was tested in triplicate.

MCF-7 cells = experiment: MTT cell viability assay, MCF-7; format: cell-based, human
Experimental: as §1
(§2) The cytotoxic effect was determined by the MTT (3-(4,5-dimethyl-2-thiazolyl)-2,5-diphenyl-2H-tetrazolium bromide) cell viability assay. Cells were seeded at an initial concentration of 1 × 10^5 cells/mL in 96-well microplates. Cells were then treated with different concentrations (0.5, 5, 10, 25, 50, 100 and 200 µM) of the novel synthesized compounds for 48 h. After the incubation period, the formed formazan crystals were dissolved in dimethyl sulfoxide (DMSO), and the optical density (OD) of the compounds was measured at 570 nm using a spectrophotometer (BMG Labtech, Ortenberg, Germany). Cytotoxicity was expressed as an increase in the mean percentage of cytotoxicity relative to the unexposed control ± standard deviation (SD). […] Control values were set at 0% cytotoxicity. IC50 was calculated by fitting the data to a sigmoidal curve using a four-parameter logistic model and was presented as an average of three independent measurements. […] Doxorubicin was used as a positive control. Each sample was tested in triplicate.
(§3) To evaluate the selectivity of the tested compound(s) toward cancer cells over normal cells, the Selectivity Index (SI) was calculated using the following formula:SI = IC50 (normal cells)/IC50 (cancer cells)
(§4) An SI value greater than 2 was considered to indicate selective cytotoxicity, while values below 2 were interpreted as non-selective. Higher SI values reflect greater therapeutic potential due to reduced toxicity toward normal cells.

HeLa cells = experiment: MTT cell viability assay, HeLa; format: cell-based, human
Experimental: as §1, §2, §3, §4

[1] = test system: A549, MCF-7, and HeLa cells; experiment: MTT cell viability assay, ranges stated across the cancer cell lines; format: cell-based; conditions: Homo sapiens, range over the three cancer cell lines, 48 h
Experimental: as §1
The cytotoxic effect was determined by the MTT (3-(4,5-dimethyl-2-thiazolyl)-2,5-diphenyl-2H-tetrazolium bromide) cell viability assay. Cells were seeded at an initial concentration of 1 × 10^5 cells/mL in 96-well microplates. […] After the incubation period, the formed formazan crystals were dissolved in dimethyl sulfoxide (DMSO), and the optical density (OD) of the compounds was measured at 570 nm using a spectrophotometer (BMG Labtech, Ortenberg, Germany). Cytotoxicity was expressed as an increase in the mean percentage of cytotoxicity relative to the unexposed control ± standard deviation (SD). […] IC50 was calculated by fitting the data to a sigmoidal curve using a four-parameter logistic model and was presented as an average of three independent measurements. […]

A549 cells = experiment: MTT cell viability assay, A549; format: cell-based, human
Experimental: as §1, §2, §3, §4

- IC50 (MCF-7 cells; Homo sapiens, MCF7, MTT, 48 h, mean ± SD, n = 3): 11.2 ± 0.46 µM
- IC50 (HeLa cells; Homo sapiens, HeLa, MTT, 48 h, mean ± SD, n = 3): 8.5 ± 0.49 µM
- IC50 [1]: 8.5 to 11.2 µM
- IC50 (A549 cells; Homo sapiens, A549, MTT, 48 h, mean ± SD, n = 3): 9.6 ± 0.55 µM
Structure (SMILES): O=c1n(CN2CCN(c3ccc(Cl)cc3)CC2)c2cc(Cl)c(Cl)cc2n1CN1CCN(c2ccc(Cl)cc2)CC1 [Compound 9, 5,6-Dichloro-1,3-bis((4-(4-chlorophenyl)piperazin-1-yl)methyl)-1H-benzo[d]imidazol-2(3H)-one]
- IC50 (HEK 293 cells): 15.2 ± 0.87 µM
- MCF-7 Selectivity Index (SI) (MCF-7 cells; SI = IC50 (HEK 293)/IC50 (MCF-7)): 1.35
- HeLa Selectivity Index (SI) (HeLa cells; SI = IC50 (HEK 293)/IC50 (HeLa)): 1.78
- A549 Selectivity Index (SI) (A549 cells; SI = IC50 (HEK 293)/IC50 (A549)): 1.58
